Experimental findings from paper PMC8991199, “Promiscuity mapping of the S100 protein family using a high-throughput holdup assay” (Scientific Reports, 2022) are described below.

Holding throughout (format): binding
In one experiment the target is T1, S100P (Homo sapiens, UniProt P25815).
T1 sequence (P25815 1-95): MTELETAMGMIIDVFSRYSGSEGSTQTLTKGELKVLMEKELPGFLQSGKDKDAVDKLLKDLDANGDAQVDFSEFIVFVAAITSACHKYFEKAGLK
Kind of experiment: direct fluorescence polarization (FP), S100P. The settings on record: 50 nM labeled foldamer, 20 mM HEPES pH 7.5, 150 mM NaCl, 1 mM CaCl2, 0.5 mM TCEP, 0.01% Tween20, quadratic fit, mean ± SEM, three technical repeats, threshold 1 mM. An excerpt: (§1) HTP (and also low-throughput) measurements generally need to be validated by an orthogonal approach to eliminate experimental artifacts. […] In this assay, the association of the fluorescently labeled foldamer and the S100 protein of interest is monitored, through the change in polarization of the emitted light by the fluorophore upon the binding event. In direct FP, the presence of the fluorophore might change the binding affinity of some foldamers. […] Nevertheless, we assumed that the fluorophore would affect all foldamers that target the same binding site to the same degree, because the foldamer scaffold is rigid.
(§2) Briefly, S100 proteins were cloned into a modified pET15b vector with a TEV protease cleavable N-terminal His6-tag and expressed in Escherichia coli BL21 (DE3) cells, followed by Ni^2+-affinity chromatography. For HU assay, S100 proteins were further purified by either hydrophobic interaction chromatography or ion exchange chromatography without the cleavage of the N-terminal His6-tag applying standard conditions. For direct FP measurements, the N-terminal His6-tag was cleaved, and the S100 proteins were purified by hydrophobic interaction chromatography, ion exchange chromatography or size exclusion chromatography. The quality of the recombinant proteins was checked by SDS-PAGE analysis in all cases. The concentration of the recombinant S100 proteins was determined by UV spectrophotometry using the absorbance of Tyr and Trp residues.
(§3) In direct fluorescence polarization assays, S100 proteins were diluted in a buffer containing 50 nM labeled foldamer, 20 mM HEPES pH 7.5, 150 mM NaCl, 1 mM CaCl2, 0.5 mM TCEP and 0.01% Tween20. The dilution series (50 µl) were divided into three technical repeats and transferred (15 µl) to a 384-well microplate. In competitive fluorescence polarization assays, the buffer applied in direct measurements was supplemented with the S100 protein of interest to reach a saturation of 60–80%. This mixture was titrated with the competitor (i.e. the unlabeled peptide). Fluorescence polarization was measured in 8 different S100 concentrations (one of which contained no S100 protein) on a Synergy H4 plate reader using 485 ± 20 nm and 528 ± 20 nm band-pass filters for excitation and emission, respectively. The Kd values were obtained by fitting the data from the FP measurements with the python-based ProFit software using quadratic and competitive binding equation for direct and competitive FP, respectively. The detection threshold was based on two parameters. First, we rejected all fitted dissociation constants above 1 mM.
On the technique in general: Polarisation of emitted light reports the rotation of a fluorescent probe.

A further experiment deals with T2, S100A11 (Homo sapiens, UniProt P31949).
T2 sequence (P31949 1-105): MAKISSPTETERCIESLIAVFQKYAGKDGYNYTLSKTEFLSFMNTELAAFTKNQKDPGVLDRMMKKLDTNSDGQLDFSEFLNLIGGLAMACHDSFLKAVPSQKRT
Kind of experiment: direct fluorescence polarization (FP), S100A11. The settings on record: S100A11, 50 nM labeled foldamer, 20 mM HEPES pH 7.5, 150 mM NaCl, 1 mM CaCl2, 0.5 mM TCEP, 0.01% Tween20, quadratic fit, mean ± SEM, three technical repeats, threshold 1 mM. How it is done: (§4) HTP (and also low-throughput) measurements generally need to be validated by an orthogonal approach to eliminate experimental artifacts. […] This way, we chose WL, IF, WW, YF, IL, VL, TW, RF, RR, TI, TM, and after resynthesizing with a fluorescent label at the C-terminus (Figs. S15–S26, Table S1), the S100ome was tested against the labeled foldamers by direct fluorescence polarization (FP) (Fig. 3A). In this assay, the association of the fluorescently labeled foldamer and the S100 protein of interest is monitored, through the change in polarization of the emitted light by the fluorophore upon the binding event. In direct FP, the presence of the fluorophore might change the binding affinity of some foldamers. […] Nevertheless, we assumed that the fluorophore would affect all foldamers that target the same binding site to the same degree, because the foldamer scaffold is rigid. Defining the threshold of detection at the dissociation constant of 1 mM, we identified 87 interactions between the selected foldamer fragments and the S100ome out of 220 possible interactions (Table 1, Fig. S4-14).
as §2, §3

In another experiment the target is T3, S100B (Homo sapiens, UniProt P04271).
T3 sequence (P04271 1-92): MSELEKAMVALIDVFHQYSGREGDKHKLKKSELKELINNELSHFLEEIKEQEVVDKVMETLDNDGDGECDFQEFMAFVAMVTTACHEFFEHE
Briefly: direct fluorescence polarization (FP), S100B. The settings on record: 50 nM labeled foldamer, 20 mM HEPES pH 7.5, 150 mM NaCl, 1 mM CaCl2, 0.5 mM TCEP, 0.01% Tween20, quadratic fit, mean ± SEM, three technical repeats, threshold 1 mM. How it is done:
as §4, §2, §3

A further experiment addresses S100A2 (Homo sapiens, UniProt P29034). Kind of experiment: direct fluorescence polarization (FP), S100A2. The settings on record: S100A2, 50 nM labeled foldamer, 20 mM HEPES pH 7.5, 150 mM NaCl, 1 mM CaCl2, 0.5 mM TCEP, 0.01% Tween20, quadratic fit, mean ± SEM, three technical repeats, threshold 1 mM.
From the text: as §1, §2, §3

In a further experiment the target is T4, S100A15 (Homo sapiens, UniProt Q86SG5).
T4 sequence (Q86SG5 1-101): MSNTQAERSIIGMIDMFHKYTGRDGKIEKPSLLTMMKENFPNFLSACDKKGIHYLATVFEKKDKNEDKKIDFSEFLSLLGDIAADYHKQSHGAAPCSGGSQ
Briefly: direct fluorescence polarization (FP), S100A15. The settings on record: S100A15, 50 nM labeled foldamer, 20 mM HEPES pH 7.5, 150 mM NaCl, 1 mM CaCl2, 0.5 mM TCEP, 0.01% Tween20, quadratic fit, mean ± SEM, three technical repeats, threshold 1 mM. How it is done:
as §4, §2, §3

Another experiment concerns the target S100A4 (Homo sapiens, UniProt P26447). Briefly: direct fluorescence polarization (FP), S100A4. The settings on record: S100A4, 50 nM labeled foldamer, 20 mM HEPES pH 7.5, 150 mM NaCl, 1 mM CaCl2, 0.5 mM TCEP, 0.01% Tween20, quadratic fit, mean ± SEM, three technical repeats, threshold 1 mM.
From the text: as §1, §2, §3

Another experiment addresses S100A10 (Homo sapiens, UniProt P60903). Briefly: direct fluorescence polarization (FP), S100A10. The conditions noted are these: S100A10, 50 nM labeled foldamer, 20 mM HEPES pH 7.5, 150 mM NaCl, 1 mM CaCl2, 0.5 mM TCEP, 0.01% Tween20, quadratic fit, mean ± SEM, three technical repeats, threshold 1 mM.
From the text: as §1, §2, §3

S100A10, sequence (P60903 whole entry): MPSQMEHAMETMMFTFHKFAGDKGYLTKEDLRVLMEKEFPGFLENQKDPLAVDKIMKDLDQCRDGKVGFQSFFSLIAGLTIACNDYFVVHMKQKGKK
S100A2, sequence (P29034 whole entry): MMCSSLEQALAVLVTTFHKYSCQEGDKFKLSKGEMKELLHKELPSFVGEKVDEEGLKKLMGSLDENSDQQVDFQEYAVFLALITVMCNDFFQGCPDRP
S100A4, sequence (P26447 whole entry): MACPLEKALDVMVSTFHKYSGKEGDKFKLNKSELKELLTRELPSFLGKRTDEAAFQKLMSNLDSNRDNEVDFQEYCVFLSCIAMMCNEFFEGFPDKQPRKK

As for `NC(=O)[C@H](CCCCNC(=O)c1ccc2c(c1)C1(OC2=O)c2ccc(O)cc2Oc2cc(O)ccc21)NC(=O)CNC(=O)[C@H]1CCCC[C@@H]1NC(=O)C[C@H](Cc1ccccc1)NC(=O)[C@H]1CCCC[C@@H]1NC(=O)[C@H]1CCCC[C@@H]1NC(=O)C[C@H](Cc1ccc(O)cc1)NC(=O)[C@H]1CCCC[C@@H]1N` [fYF], the Kd at S100P is 79 ± 5.7 µM; at S100A11, over 1000 µM; at S100B, 28 ± 1.7 µM; on S100A2 it was 26 ± 2.1 µM; on S100A15, over 1000 µM; on S100A4 it was 113 ± 5.2 µM. Further, the dissociation constant (Kd) at S100A10 was found to be 70 ± 3.5 µM.

What is called Kd is the concentration at which binding is half-saturated.
